{
  "source": "ChEMBL document CHEMBL1649227",
  "about": "“In vitro antiviral activity of V-073 against polioviruses” (Antimicrob Agents Chemother, 2009)",
  "key": {"Enterovirus C [1]": {"tested_on": "Enterovirus C", "experiment": "Antiviral activity against Poliovirus 10243 serotype PV2 obtained from immunodeficient chronic excretor infected in […] LLC-MK2 cells assessed as inhibition of viral-replication induced cytopathic effect", "assay_type": "functional, organism-based", "details": "10243 serotype PV2, LLC-MK2"}, "Enterovirus C [2]": {"tested_on": "Enterovirus C", "experiment": "Antiviral activity against Poliovirus 10221 serotype PV2 obtained from immunodeficient chronic excretor infected in […] LLC-MK2 cells assessed as inhibition of viral-replication induced cytopathic effect", "assay_type": "functional, organism-based", "details": "10221 serotype PV2, LLC-MK2"}, "Enterovirus C [3]": {"tested_on": "Enterovirus C", "experiment": "Antiviral activity against Poliovirus 10228 serotype PV2 obtained from immunodeficient chronic excretor infected in […] LLC-MK2 cells assessed as inhibition of viral-replication induced cytopathic effect", "assay_type": "functional, organism-based", "details": "10228 serotype PV2, LLC-MK2"}, "Enterovirus C [4]": {"tested_on": "Enterovirus C", "experiment": "Antiviral activity against Poliovirus 10226 serotype PV2 obtained from immunodeficient chronic excretor infected in […] LLC-MK2 cells assessed as inhibition of viral-replication induced cytopathic effect", "assay_type": "functional, organism-based", "details": "10226 serotype PV2, LLC-MK2"}, "Enterovirus C [5]": {"tested_on": "Enterovirus C", "experiment": "Antiviral activity against Poliovirus 10227 serotype PV2 obtained from immunodeficient chronic excretor infected in […] LLC-MK2 cells assessed as inhibition of viral-replication induced cytopathic effect", "assay_type": "functional, organism-based", "details": "10227 serotype PV2, LLC-MK2"}, "Enterovirus C [6]": {"tested_on": "Enterovirus C", "experiment": "Antiviral activity against Poliovirus Lansing serotype PV2 infected in […] LLC-MK2 cells assessed as inhibition of viral-replication induced cytopathic effect", "assay_type": "functional, organism-based"}, "Enterovirus C [7]": {"tested_on": "Enterovirus C", "experiment": "Antiviral activity against Poliovirus MEF-1 serotype PV2 infected in […] LLC-MK2 cells assessed as inhibition of viral-replication induced cytopathic effect", "assay_type": "functional, organism-based", "details": "MEF-1 serotype PV2, LLC-MK2"}, "Enterovirus C [8]": {"tested_on": "Enterovirus C", "experiment": "Antiviral activity against Poliovirus P712 serotype PV2 vaccine-derived infected in […] LLC-MK2 cells assessed as inhibition of viral-replication induced cytopathic effect", "assay_type": "functional, organism-based"}, "Enterovirus C [9]": {"tested_on": "Enterovirus C", "experiment": "Antiviral activity against Poliovirus PV2-P712 serotype PV2 obtained from immunodeficient chronic excretor infected in […] LLC-MK2 cells assessed as inhibition of viral-replication induced cytopathic effect", "assay_type": "functional, organism-based"}, "Enterovirus C [10]": {"tested_on": "Enterovirus C", "experiment": "Antiviral activity against Poliovirus 10804 serotype PV3 obtained from immunodeficient chronic excretor infected in […] LLC-MK2 cells assessed as inhibition of viral-replication induced cytopathic effect", "assay_type": "functional, organism-based", "details": "10804 serotype PV3, LLC-MK2"}, "Enterovirus C [11]": {"tested_on": "Enterovirus C", "experiment": "Antiviral activity against Poliovirus 10805 serotype PV3 infected in […] LLC-MK2 cells assessed as inhibition of viral-replication induced cytopathic effect", "assay_type": "functional, organism-based", "details": "10805 serotype PV3, LLC-MK2"}, "Enterovirus C [12]": {"tested_on": "Enterovirus C", "experiment": "Antiviral activity against Poliovirus Saukett serotype PV3 infected in […] LLC-MK2 cells assessed as inhibition of viral-replication induced cytopathic effect", "assay_type": "functional, organism-based"}, "Enterovirus C [13]": {"tested_on": "Enterovirus C", "experiment": "Antiviral activity against Poliovirus Leon serotype PV3 infected in […] LLC-MK2 cells assessed as inhibition of viral-replication induced cytopathic effect", "assay_type": "functional, organism-based"}, "Enterovirus C [14]": {"tested_on": "Enterovirus C", "experiment": "Antiviral activity against Poliovirus PV3-Leon serotype PV3 vaccine-derived infected in […] LLC-MK2 cells assessed as inhibition of viral-replication induced cytopathic effect", "assay_type": "functional, organism-based"}, "[15]": {"experiment": "Selectivity index, ratio of CC50 for human HeLa cells to EC50 for poliovirus", "assay_type": "toxicity, cell-based", "details": "read-out: Ratio CC50/EC50"}, "[16]": {"experiment": "Selectivity index, ratio of CC50 for african green monkey BGMK cells to EC50 for poliovirus", "assay_type": "toxicity, cell-based", "details": "read-out: Ratio CC50/EC50"}, "HeLa": {"tested_on": "HeLa", "experiment": "Cytotoxicity against human HeLa cells after 18 to 24 hrs by MTT assay", "assay_type": "cell-based"}, "[17]": {"experiment": "Cytotoxicity against african green monkey BGMK cells after 18 to 24 hrs by MTT assay", "assay_type": "cell-based", "details": "chlorocebus aethiops"}, "Coxsackievirus A9": {"tested_on": "Coxsackievirus A9", "experiment": "Antiviral activity against Coxsackievirus serotype A9 infected in african green monkey BGMK cells assessed as inhibition of virus induced cytopathic effect after 18 to 24 hrs", "assay_type": "functional, organism-based", "details": "Enterovirus B"}, "Coxsackievirus B1": {"tested_on": "Coxsackievirus B1", "experiment": "Antiviral activity against Coxsackievirus serotype B1 infected in african green monkey BGMK cells assessed as inhibition of virus induced cytopathic effect after 18 to 24 hrs", "assay_type": "functional, organism-based", "details": "Enterovirus B"}, "Coxsackievirus B2": {"tested_on": "Coxsackievirus B2", "experiment": "Antiviral activity against Coxsackievirus serotype B2 infected in african green monkey BGMK cells assessed as inhibition of virus induced cytopathic effect after 18 to 24 hrs", "assay_type": "functional, organism-based", "details": "Enterovirus B"}, "Coxsackievirus B3": {"tested_on": "Coxsackievirus B3", "experiment": "Antiviral activity against Coxsackievirus serotype B3 infected in african green monkey BGMK cells assessed as inhibition of virus induced cytopathic effect after 18 to 24 hrs", "assay_type": "functional, organism-based", "details": "Enterovirus B"}, "Coxsackievirus B4": {"tested_on": "Coxsackievirus B4", "experiment": "Antiviral activity against Coxsackievirus serotype B4 infected in african green monkey BGMK cells assessed as inhibition of virus induced cytopathic effect after 18 to 24 hrs", "assay_type": "functional, organism-based", "details": "Enterovirus B"}, "Coxsackievirus B5": {"tested_on": "Coxsackievirus B5", "experiment": "Antiviral activity against Coxsackievirus serotype B5 infected in african green monkey BGMK cells assessed as inhibition of virus induced cytopathic effect after 18 to 24 hrs", "assay_type": "functional, organism-based", "details": "Enterovirus B"}, "enterovirus D68": {"tested_on": "enterovirus D68", "experiment": "Antiviral activity against Enterovirus serotype 68 infected in african green monkey BGMK cells assessed as inhibition of virus induced cytopathic effect after 18 to 24 hrs", "assay_type": "functional, organism-based", "details": "Enterovirus D"}, "Human enterovirus 70": {"tested_on": "Human enterovirus 70", "experiment": "Antiviral activity against Enterovirus serotype 70 infected in african green monkey BGMK cells assessed as inhibition of virus induced cytopathic effect after 18 to 24 hrs", "assay_type": "functional, cell-based, enterovirus D70", "details": "Enterovirus D"}, "Enterovirus A71": {"tested_on": "Enterovirus A71", "experiment": "Antiviral activity against Enterovirus serotype 71 infected in african green monkey BGMK cells assessed as inhibition of virus induced cytopathic effect after 18 to 24 hrs", "assay_type": "functional, organism-based", "details": "Enterovirus A"}, "[18]": {"experiment": "Solubility of the compound", "assay_type": "physicochemical"}},
  "data": [
    {"smiles": "COc1ccc(OCc2ccc(COc3c(Cl)cccc3Cl)cc2)c(Cl)c1", "values": [
      {"measurement": "EC50", "setting": "Enterovirus C [1]", "value": 38, "unit": "nM"},
      {"measurement": "EC50", "setting": "Enterovirus C [2]", "value": 27, "unit": "nM"},
      {"measurement": "EC50", "setting": "Enterovirus C [3]", "value": 126, "unit": "nM"},
      {"measurement": "EC50", "setting": "Enterovirus C [4]", "value": 19, "unit": "nM"},
      {"measurement": "EC50", "setting": "Enterovirus C [5]", "value": 19, "unit": "nM"},
      {"measurement": "EC50", "setting": "Enterovirus C [6]", "value": 7, "unit": "nM"},
      {"measurement": "EC50", "setting": "Enterovirus C [7]", "value": 26, "unit": "nM"},
      {"measurement": "EC50", "setting": "Enterovirus C [8]", "value": 3, "unit": "nM"},
      {"measurement": "EC50", "setting": "Enterovirus C [9]", "value": 16, "unit": "nM"},
      {"measurement": "EC50", "setting": "Enterovirus C [10]", "value": 42, "unit": "nM"},
      {"measurement": "EC50", "setting": "Enterovirus C [11]", "value": 29, "unit": "nM"},
      {"measurement": "EC50", "setting": "Enterovirus C [12]", "value": 62, "unit": "nM"},
      {"measurement": "EC50", "setting": "Enterovirus C [13]", "value": 109, "unit": "nM"},
      {"measurement": "EC50", "setting": "Enterovirus C [14]", "value": 20, "unit": "nM"},
      {"measurement": "selectivity ratio", "setting": "[15]", "value": 75},
      {"measurement": "selectivity ratio", "setting": "[16]", "value": 75},
      {"measurement": "Activity", "setting": "HeLa", "value": "> 50", "unit": "µg/mL"},
      {"measurement": "Activity", "setting": "[17]", "value": "> 50", "unit": "µg/mL"},
      {"measurement": "EC50", "setting": "Coxsackievirus A9", "value": 3790, "unit": "nM"},
      {"measurement": "EC50", "setting": "Coxsackievirus B1", "value": 3790, "unit": "nM"},
      {"measurement": "EC50", "setting": "Coxsackievirus B2", "value": 3790, "unit": "nM"},
      {"measurement": "EC50", "setting": "Coxsackievirus B3", "value": 3790, "unit": "nM"},
      {"measurement": "EC50", "setting": "Coxsackievirus B4", "value": 3790, "unit": "nM"},
      {"measurement": "EC50", "setting": "Coxsackievirus B5", "value": 3790, "unit": "nM"},
      {"measurement": "MIC90", "setting": "enterovirus D68", "value": 1.42, "unit": "µM"},
      {"measurement": "EC50", "setting": "enterovirus D68; BGMK", "value": 3470, "unit": "nM"},
      {"measurement": "MIC90", "setting": "Human enterovirus 70", "value": 1.42, "unit": "µM"},
      {"measurement": "EC50", "setting": "Human enterovirus 70; BGMK", "value": 3470, "unit": "nM"},
      {"measurement": "MIC90", "setting": "Enterovirus A71", "value": 1.42, "unit": "µM"},
      {"measurement": "EC50", "setting": "Enterovirus A71; BGMK", "value": 3470, "unit": "nM"},
      {"measurement": "solubility", "setting": "[18]", "value": 14, "unit": "µM"}
    ]}
  ]
}
